Source: PMC6422423, “Constitutively active BRS3 is a genuinely orphan GPCR in placental mammals” (PLoS Biology, 2019)

How the values were obtained:
[1] = system: BRS3 receptors in placental mammals; assay: ERK1/2 phosphorylation, placental pooled; assay type: cell-based, human, mouse, dog, and aardvark; settings: 1,000 nM peptide, 0/2/5 min, HEK293
Method: (§1) For ERK1/2 phosphorylation, HEK293 cells were seeded in 24-well plates and transfected with GRPR, NMBR, BRS3, mutants of different species’ BRS3, or an empty vector plasmid, pcDNA3.1-V5-His plasmid (300 ng). […] Each sample with an equal amount of protein was mixed with 6×SDS sample buffer, boiled for 5 min, and separated on 10% SDS-polyacrylamide gel electrophoresis (PAGE) before transferring the proteins onto a PVDF membrane. The membranes were then blocked at room temperature for 1 h with 5% milk powder in Tris-buffered saline-Tween (TBST), followed by subsequent incubation at 4°C overnight in TBST containing the different primary antibodies (1:1,000 dilution). After washing three times (10 min each time) with TBST, the membranes were incubated for 1 h in TBST containing the secondary antibodies (1:2,000 dilution), followed by washing three times (10 min each time) with TBST, prior to detection by chemiluminescence.

[2] = system: BRS3 receptors in nonplacental vertebrates; assay: ERK1/2 phosphorylation, nonplacental pooled; assay type: cell-based, koala, platypus, chicken, turtle, frog, and spotted gar; settings: 1,000 nM peptide, 0/2/5 min, HEK293
Method: as §1

[3] = molecular target: placental mammalian BRS3 (hBRS3, mBRS3, and aBRS3); assay: Radioligand binding, placental mammals pooled; design: species or system human, mouse, aardvark; settings: for Ki: BRS3s in placental mammals; for Direct binding (in words): hBRS3, mBRS3, aBRS3, transfected HEK293 cells
Method: (§2) HEK293 cells were seeded in a 10-cm tissue culture dish at a density of 10^6 cells per dish and grown overnight at 37°C in growth medium. The following morning, 5 μg of different species’ BRS3 plasmids were transfected. After 6 h, the medium was replaced with growth medium. Cells were maintained at 37°C in a 5% CO2 atmosphere and used 48 h later for binding assays. The positive control group included transfected GRPR and NMBR; the test group consisted of transfected BRS3 from different species. Then, [^125I]-Tyr^42-GRP and [^125I]-Tyr-NMB were used as the ligands to assess affinity to the various receptors. […] The cell concentration was adjusted to between 0.05 and 4 × 10^6 cells/ml for each receptor such that less than 20% of the total added radioactive ligand was bound during the incubation, and the results were compared to cells transfected with GRPR or NMBR adjusted in concentration to bind a similar amount of ligand. After the incubation, 100 μl aliquots were added to 1.5-ml microfuge tubes, which contained 100 μl of binding buffer to determine the total radioactivity. The bound tracer was separated from unbound tracer by pelleting the cells through the binding buffer by centrifugation at 10,000g in a Microfuge E (Beckman) for 3 min. The supernatant was aspirated, and the pelleted cells were rinsed twice with a washing buffer that contained 1% (w/v) BSA in PBS. The amount of radioactivity bound to the cells was measured in a Cobra II Gamma counter (Packard Instruments). Binding was expressed as the percentage of total radioactivity that was associated with the cell pellet. All binding values represented saturable binding; nonsaturable binding was <15% of the total binding in all experiments. Each point was measured in duplicate, and each experiment was replicated at least four times. […] All the experiment data were calculated using 1 pM ligand-treated as 100% control.

[4] = system: turtle BRS3 (tBRS3); assay: ERK1/2 phosphorylation (WT and mutants); assay type: cell-based, Chrysemys picta
Method: as §1

[5] = system: BRS3 receptors in placental mammals; assay: Intracellular calcium assay, placental pooled; assay type: cell-based, human, mouse, dog, and aardvark; settings: 10 nM peptide, HEK293
Method: (§3) Intracellular calcium was measured using the non-wash calcium assay Fluo8 kit (ab112129, Abcam) according to the manufacturer’s instructions. Briefly, HEK293 cells were seeded in 24-well plates and were transfected with GRPR, NMBR, BRS3, or the empty vector plasmid pcDNA3.1-V5-His (300 ng) and incubated overnight at 37°C with 5% CO2. The next day, the cells were replated into a 96-well assay plate (black plate and clear bottom). After 12 h, growth media were aspirated, and calcium dye was added. […] The basal fluorescence intensity was recorded 15 times at 1 Hz for […]. The results were normalized to the average basal fluorescence intensity in ratio, and the peak response was used for the result calculation. Calcium fold was calculated using no stimulation data as standard value.

[6] = system: mouse BRS3 (mBRS3); assay: Intracellular calcium assay (WT and mutants); assay type: cell-based; settings: for Calcium fold: 10 nM peptide, HEK293, Fluo8, mBRS3; for Intracellular Ca2+, mutants (in words): mBRS3 R127Q, S205P, and H294R, all three
Method: as §3

[7] = system: human BRS3 (hBRS3); assay: Intracellular calcium assay (WT and mutants); assay type: cell-based; settings: 10 nM peptide; for Calcium fold: HEK293, Fluo8, hBRS3; for Intracellular Ca2+, mutants vs wild type (in words): hBRS3 R127Q, S205P, and H294R, each
Method: as §3

[8] = system: BRS3 receptors in nonplacental vertebrates; assay: Intracellular calcium assay, nonplacental pooled; assay type: cell-based, koala, platypus, chicken, turtle, frog, and spotted gar; settings: 10 nM peptide, HEK293
Method: as §3

[9] = system: aardvark BRS3 (aBRS3); assay: Intracellular calcium assay (WT and mutants); assay type: cell-based, Orycteropus afer; settings: for Calcium fold: 10 nM peptide, HEK293, Fluo8, aBRS3; for Intracellular Ca2+, mutants (in words): aBRS3 R127Q, S205P, and H294R, all three
Method: as §3

[10] = molecular target: chicken BRS3 (cBRS3); assay: Radioligand binding (competition); design: species or system Gallus gallus; settings: transfected HEK293 cells, 1 h 21°C, pH 7.4, mean ± SE, at least three experiments
Method: as §2, with “species.” for “species. Then, [^125I]-Tyr^42-GRP and [^125I]-Tyr-NMB were used as the ligands to assess affinity to the various receptors.”, “All binding values represented saturable binding; nonsaturable binding was <15% of the total binding in all experiments.” left out

## GSHWAVGHLM-NH2 [GRP, gastrin-releasing peptide]
[1]
  ERK phosphorylation (in words): could not be activated
[2]
  ERK phosphorylation (in words): increase in the levels of phosphorylated ERK
[3]
  Ki: > 1000 nM
  Direct binding (in words): no binding was detected
[4]; tBRS3 P205S
  ERK phosphorylation, mutant (in words): the effect is not obvious
[4]; tBRS3 Q127R
  ERK phosphorylation, mutant (in words): almost could not be detected
[4]; tBRS3 R294H
  ERK phosphorylation, mutant (in words): almost could not be detected
[5]
  Intracellular Ca2+ (in words): no stimulation was observed
[6]; replicate 1
  Calcium fold: 1.0113 fold
[6]; replicate 2
  Calcium fold: 1.0374 fold
[6]; replicate 3
  Calcium fold: 1.111 fold
[6]
  Intracellular Ca2+, mutants (in words): significant increase in cellular Ca^2+ ions levels
[7]; replicate 1
  Calcium fold: 1.1274 fold
[7]; replicate 2
  Calcium fold: 1.2515 fold
[7]; replicate 3
  Calcium fold: 1.1684 fold
[7]
  Intracellular Ca2+, mutants vs wild type (in words): remarkable increase of cellular Ca^2+ ions
[8]
  Intracellular Ca2+ (in words): remarkable increase of Ca^2+ ions in cells
[9]; replicate 1
  Calcium fold: 1.0918 fold
[9]; replicate 2
  Calcium fold: 1.1902 fold
[9]; replicate 3
  Calcium fold: 1.2372 fold
[9]
  Intracellular Ca2+, mutants (in words): significant increase in cellular Ca^2+ ions levels
[10]; 50 pM [125I]-Tyr42-GRP
  IC50: 0.15 nM
[10]; 50 pM [125I]-Tyr-NMB
  IC50: 0.18 nM

## neuromedin B [NMB]
[1]
  ERK phosphorylation (in words): could not be activated
[2]
  ERK phosphorylation (in words): increase in the levels of phosphorylated ERK
[3]
  Ki: > 1000 nM
  Direct binding (in words): no binding
[4]; tBRS3 P205S
  ERK phosphorylation, mutant (in words): the effect is not obvious
[4]; tBRS3 Q127R
  ERK phosphorylation, mutant (in words): almost could not be detected
[4]; tBRS3 R294H
  ERK phosphorylation, mutant (in words): almost could not be detected
[5]
  Intracellular Ca2+ (in words): no stimulation was observed
[6]
  Intracellular Ca2+, mutants (in words): significant increase in cellular Ca^2+ ions levels
[7]
  Intracellular Ca2+, mutants vs wild type (in words): remarkable increase of cellular Ca^2+ ions
[8]
  Intracellular Ca2+ (in words): remarkable increase of Ca^2+ ions in cells
[9]
  Intracellular Ca2+, mutants (in words): significant increase in cellular Ca^2+ ions levels
[10]; 50 pM [125I]-Tyr42-GRP
  IC50: 1.35 nM
[10]; 50 pM [125I]-Tyr-NMB
  IC50: 2.26 nM
